Experimental data taken from ChEMBL document CHEMBL1137239, “Accurate prediction of the relative potencies of members of a series of kinase inhibitors using molecular docking and MM-GBSA scoring” (J Med Chem, 2006).

molecular target: T1, Aurora kinase A (Homo sapiens, UniProt O14965); assay: Inhibition of Aurora A
T1 sequence (O14965 whole entry): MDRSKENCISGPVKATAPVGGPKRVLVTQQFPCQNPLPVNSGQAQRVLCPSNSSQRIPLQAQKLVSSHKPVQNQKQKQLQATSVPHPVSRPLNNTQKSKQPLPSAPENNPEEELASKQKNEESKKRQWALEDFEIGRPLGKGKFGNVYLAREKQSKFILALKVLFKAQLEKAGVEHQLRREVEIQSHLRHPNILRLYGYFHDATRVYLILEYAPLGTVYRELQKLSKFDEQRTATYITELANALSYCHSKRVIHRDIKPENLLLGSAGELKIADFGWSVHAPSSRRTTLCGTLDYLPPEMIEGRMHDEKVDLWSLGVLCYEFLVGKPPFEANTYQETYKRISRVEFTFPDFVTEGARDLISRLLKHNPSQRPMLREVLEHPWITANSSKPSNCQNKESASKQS

| Compound | IC50 [nM] |
| --- | --- |
| COc1cc2c(Nc3cnc(NC(=O)c4ccc(Cc5ccccc5)c(Br)c4)nc3)ncnc2cc1OCCCN1CCOCC1 | 70 |
| COc1cc2c(Nc3cnc(NC(=O)c4ccccc4)nc3)ncnc2cc1OC[C@@H](O)CN1CCCCC1 | 0.8 |
| CCCN(CCC)S(=O)(=O)c1ncc(C(=O)Nc2ncc(Nc3ncnc4cc(OCCCN5CCOCC5)c(OC)cc34)cn2)cn1 | 3900 |
